Laboratory results published in PubChem BioAssay (NCI).
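Five concentrations, 48 hours, 96-well plates. GI50 = concentration required for 50% inhibition of growth. TGI: concentration producing complete growth inhibition.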

Legend:
Assay in all cases: growth of human tumour cells (NCI), 48 h
SK-MEL-5 melanoma = test system: SK-MEL-5 melanoma
COLO 205 colon = test system: COLO 205 colon
OVCAR-3 ovarian = test system: OVCAR-3 ovarian
TK-10 renal = test system: TK-10 renal
SW-620 colon = test system: SW-620 colon
SR leukemia = test system: SR leukemia
MDA-MB-231 breast = test system: MDA-MB-231 breast
SF-539 CNS = test system: SF-539 CNS
CCRF-CEM leukemia = test system: CCRF-CEM leukemia
SF-268 CNS = test system: SF-268 CNS
HCC-2998 colon = test system: HCC-2998 colon
NCI/ADR-RES ovarian = test system: NCI/ADR-RES ovarian
BT-549 breast = test system: BT-549 breast
OVCAR-5 ovarian = test system: OVCAR-5 ovarian
HCT-116 colon = test system: HCT-116 colon
SF-295 CNS = test system: SF-295 CNS
MDA-MB-435 = test system: MDA-MB-435
K-562 leukemia = test system: K-562 leukemia
786-0 renal = test system: 786-0 renal
IGROV1 ovarian = test system: IGROV1 ovarian
PC-3 prostate = test system: PC-3 prostate
A498 renal = test system: A498 renal
RPMI-8226 leukemia = test system: RPMI-8226 leukemia
HT29 colon = test system: HT29 colon
HCT-15 colon = test system: HCT-15 colon
UACC-62 melanoma = test system: UACC-62 melanoma
HL-60(TB) leukemia = test system: HL-60(TB) leukemia
HS 578T breast = test system: HS 578T breast

Question: How did the GI50 (SK-MEL-5 melanoma) turn out when `Cc1nc(N)sc1-c1csc(Nc2ccc(C(F)(F)F)cc2)n1` was run?
Answer: Its GI50 is 3.32 µM.

Question: What about the TGI (SK-MEL-5 melanoma) of the same molecule?
Answer: The TGI was 11.9 µM.

Question: And the GI50 (COLO 205 colon)?
Answer: The GI50 was 11.9 µM.

Question: And the TGI (COLO 205 colon)?
Answer: The TGI was 36.9 µM.

Question: And the GI50 (OVCAR-3 ovarian)?
Answer: The GI50 was 4.41 µM.

Question: And the TGI (OVCAR-3 ovarian)?
Answer: Its TGI is 17.3 µM.

Question: And the GI50 (TK-10 renal)?
Answer: The GI50 was 8.73 µM.

Question: And the TGI (TK-10 renal)?
Answer: The TGI was 21.4 µM.

Question: What about the GI50 (SW-620 colon) of the same molecule?
Answer: Its GI50 is 4.92 µM.

Question: What about the TGI (SW-620 colon) of the same molecule?
Answer: Its TGI is 19.5 µM.

Question: What about the GI50 (SR leukemia) of the same molecule?
Answer: The GI50 was 3.6 µM.

Question: And the TGI (SR leukemia)?
Answer: Its TGI is 24.2 µM.

Question: And the GI50 (MDA-MB-231 breast)?
Answer: Its GI50 is 3.45 µM.

Question: And the TGI (MDA-MB-231 breast)?
Answer: The TGI was 17.5 µM.

Question: What about the GI50 (SF-539 CNS) of the same molecule?
Answer: Its GI50 is 6.69 µM.

Question: What about the TGI (SF-539 CNS) of the same molecule?
Answer: Its TGI is 20 µM.

Question: And the GI50 (CCRF-CEM leukemia)?
Answer: The GI50 was 3.22 µM.

Question: What about the TGI (CCRF-CEM leukemia) of the same molecule?
Answer: Its TGI is 53 µM.

Question: And the GI50 (SF-268 CNS)?
Answer: Its GI50 is 6.75 µM.

Question: What about the TGI (SF-268 CNS) of the same molecule?
Answer: Its TGI is 22.6 µM.

Question: And the GI50 (HCC-2998 colon)?
Answer: Its GI50 is 4.66 µM.

Question: And the TGI (HCC-2998 colon)?
Answer: Its TGI is 17.3 µM.

Question: And the GI50 (NCI/ADR-RES ovarian)?
Answer: The GI50 was 5.36 µM.

Question: What about the TGI (NCI/ADR-RES ovarian) of the same molecule?
Answer: Its TGI is 21 µM.

Question: What about the GI50 (BT-549 breast) of the same molecule?
Answer: Its GI50 is 2.03 µM.

Question: And the TGI (BT-549 breast)?
Answer: Its TGI is 6.75 µM.

Question: And the GI50 (OVCAR-5 ovarian)?
Answer: The GI50 was 4.42 µM.

Question: And the TGI (OVCAR-5 ovarian)?
Answer: The TGI was 18.9 µM.

Question: What about the GI50 (HCT-116 colon) of the same molecule?
Answer: The GI50 was 3.36 µM.

Question: And the TGI (HCT-116 colon)?
Answer: The TGI was 16 µM.

Question: And the GI50 (SF-295 CNS)?
Answer: The GI50 was 3.08 µM.

Question: What about the TGI (SF-295 CNS) of the same molecule?
Answer: The TGI was 15.1 µM.

Question: What about the GI50 (MDA-MB-435) of the same molecule?
Answer: The GI50 was 4.43 µM.

Question: What about the TGI (MDA-MB-435) of the same molecule?
Answer: The TGI was 17.4 µM.

Question: What about the GI50 (K-562 leukemia) of the same molecule?
Answer: The GI50 was 3.27 µM.

Question: What about the TGI (K-562 leukemia) of the same molecule?
Answer: The TGI was 31 µM.

Question: And the GI50 (786-0 renal)?
Answer: Its GI50 is 4.41 µM.

Question: What about the TGI (786-0 renal) of the same molecule?
Answer: Its TGI is 17.5 µM.

Question: And the GI50 (IGROV1 ovarian)?
Answer: Its GI50 is 2.01 µM.

Question: What about the TGI (IGROV1 ovarian) of the same molecule?
Answer: The TGI was 14.7 µM.

Question: And the GI50 (PC-3 prostate)?
Answer: The GI50 was 4.12 µM.

Question: What about the TGI (PC-3 prostate) of the same molecule?
Answer: The TGI was 22.2 µM.

Question: What about the GI50 (A498 renal) of the same molecule?
Answer: The GI50 was 11.9 µM.

Question: And the TGI (A498 renal)?
Answer: Its TGI is 25.1 µM.

Question: What about the GI50 (RPMI-8226 leukemia) of the same molecule?
Answer: The GI50 was 3.98 µM.

Question: What about the TGI (RPMI-8226 leukemia) of the same molecule?
Answer: The TGI was 72.3 µM.

Question: What about the GI50 (HT29 colon) of the same molecule?
Answer: Its GI50 is 2.49 µM.

Question: What about the TGI (HT29 colon) of the same molecule?
Answer: The TGI was 7.09 µM.

Question: And the GI50 (HCT-15 colon)?
Answer: The GI50 was 3.02 µM.

Question: And the TGI (HCT-15 colon)?
Answer: The TGI was 11.9 µM.

Question: And the GI50 (UACC-62 melanoma)?
Answer: The GI50 was 8.61 µM.

Question: And the TGI (UACC-62 melanoma)?
Answer: The TGI was 21 µM.

Question: What about the GI50 (HL-60(TB) leukemia) of the same molecule?
Answer: Its GI50 is 13.2 µM.

Question: And the TGI (HL-60(TB) leukemia)?
Answer: Its TGI is 32.2 µM.

Question: What about the GI50 (HS 578T breast) of the same molecule?
Answer: The GI50 was 2.84 µM.

Question: What about the TGI (HS 578T breast) of the same molecule?
Answer: The TGI was 23.6 µM.
